Experiments:
Assay in all cases: relative viability (nuclei count vs DMSO), 5 days (fraction); higher = more cells survive
[1] = compound: O=C(O)C(Cc1ccccc1[N+](=O)[O-])=NNc1nc(-c2ccc(Cl)c(Cl)c2)cs1 (mixture of isomers) [4EGI-1] + COc1cc2c(Oc3ccc(NC(=O)C4(C(=O)Nc5ccc(F)cc5)CC4)cc3F)ccnc2cc1OCCCN1CCOCC1 [Foretinib] (partner 0.25 µM)
Procedure, shortened: (§1)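 Cells from lung cancer lines were seeded into 1536-well plates and, one day later, dosed by pin tool. Treatments were either a single drug or a fixed dose of an anchor drug with five library-drug doses (not always all listed) in √10 steps. After 5 days, nuclei were stained in a one-step fixation (final 0.05% Triton X-100, 1% formaldehyde, 1 ug/ml Hoechst) and counted on 4× images, and relative viability is the treated-to-vehicle nuclei ratio, as the median of duplicate plates.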

[2] = compound: CN1CCN(CC1)C2=CC(=C(C=C2)NC3=NC=C4C(=N3)N(C5=CC=CC=C5C(=O)N4C)C)OC [XMD8-85] + Cc1cc(Nc2cc(N3CCN(C)CC3)nc(Sc3ccc(NC(=O)C4CC4)cc3)n2)n[nH]1 [Tozasertib] (partner 0.1 µM)
Procedure, shortened: as §1

[3] = compound: O=C(O)C(Cc1ccccc1[N+](=O)[O-])=NNc1nc(-c2ccc(Cl)c(Cl)c2)cs1 (mixture of isomers) [4EGI-1] + C[C@]1(O)C[C@@H](c2nc(-c3ccc4ccc(-c5ccccc5)nc4c3)c3c(N)nccn32)C1 [Linsitinib] (partner 1 µM)
Procedure, shortened: as §1

[4] = compound: O=C(O)C(Cc1ccccc1[N+](=O)[O-])=NNc1nc(-c2ccc(Cl)c(Cl)c2)cs1 (mixture of isomers) [4EGI-1] + CC(C)C[C@H](NC(=O)[C@H](Cc1ccccc1)NC(=O)c1cnccn1)B(O)O [Bortezomib] (partner 0.002 µM)
Procedure, shortened: as §1

Cell Line: HARA
- relative viability ([1]; first compound 0.5 µM): 0.979
- relative viability ([1]; first compound 1.581 µM): 0.806
- relative viability ([1]; first compound 5 µM): 0.965
- relative viability ([1]; first compound 15.81 µM): 0.76
- relative viability ([1]; first compound 50 µM): 0.175
- relative viability ([2]; first compound 0.08 µM): 0.103
- relative viability ([2]; first compound 0.253 µM): 0.42
- relative viability ([2]; first compound 0.8 µM): 0.104
- relative viability ([2]; first compound 2.53 µM): 0.101
- relative viability ([2]; first compound 8 µM): 0.0877
- relative viability ([3]; first compound 0.5 µM): 0.982
- relative viability ([3]; first compound 1.581 µM): 0.955
- relative viability ([3]; first compound 5 µM): 1.05
- relative viability ([3]; first compound 15.81 µM): 0.973
- relative viability ([3]; first compound 50 µM): 0.209
- relative viability ([4]; first compound 0.5 µM): 1.16
- relative viability ([4]; first compound 1.581 µM): 1.12
- relative viability ([4]; first compound 5 µM): 1.26
- relative viability ([4]; first compound 15.81 µM): 1.08
- relative viability ([4]; first compound 50 µM): 0.154

Cell Line: UMC-11
- relative viability ([1]; first compound 0.5 µM): 1.1
- relative viability ([1]; first compound 1.581 µM): 1.09
- relative viability ([1]; first compound 5 µM): 1.12
- relative viability ([1]; first compound 15.81 µM): 1.09
- relative viability ([1]; first compound 50 µM): 0.39
- relative viability ([2]; first compound 0.08 µM): 0.251
- relative viability ([2]; first compound 0.253 µM): 0.209
- relative viability ([2]; first compound 0.8 µM): 0.233
- relative viability ([2]; first compound 2.53 µM): 0.248
- relative viability ([2]; first compound 8 µM): 0.197
- relative viability ([3]; first compound 0.5 µM): 1.06
- relative viability ([3]; first compound 1.581 µM): 1.18
- relative viability ([3]; first compound 5 µM): 1.02
- relative viability ([3]; first compound 15.81 µM): 0.987
- relative viability ([3]; first compound 50 µM): 0.399
- relative viability ([4]; first compound 0.5 µM): 1.04
- relative viability ([4]; first compound 1.581 µM): 0.872
- relative viability ([4]; first compound 5 µM): 0.669
- relative viability ([4]; first compound 15.81 µM): 0.679
- relative viability ([4]; first compound 50 µM): 0.255

Cell Line: NCI-H460
- relative viability ([1]; first compound 0.5 µM): 1.02
- relative viability ([1]; first compound 5 µM): 0.997
- relative viability ([1]; first compound 15.81 µM): 0.686
- relative viability ([1]; first compound 50 µM): 0.228
- relative viability ([2]; first compound 0.08 µM): 0.445
- relative viability ([2]; first compound 0.253 µM): 0.339
- relative viability ([2]; first compound 0.8 µM): 0.445
- relative viability ([2]; first compound 2.53 µM): 0.329
- relative viability ([2]; first compound 8 µM): 0.0548
- relative viability ([3]; first compound 0.5 µM): 0.777
- relative viability ([3]; first compound 5 µM): 1.07
- relative viability ([3]; first compound 15.81 µM): 0.182
- relative viability ([3]; first compound 50 µM): 0.0218
- relative viability ([4]; first compound 0.5 µM): 1.15
- relative viability ([4]; first compound 5 µM): 1.08
- relative viability ([4]; first compound 15.81 µM): 0.913
- relative viability ([4]; first compound 50 µM): 0.0451

Cell Line: NCI-H322M
- relative viability ([1]; first compound 0.5 µM): 1.03
- relative viability ([1]; first compound 5 µM): 1.13
- relative viability ([1]; first compound 15.81 µM): 0.816
- relative viability ([1]; first compound 50 µM): 0.342
- relative viability ([2]; first compound 0.08 µM): 0.427
- relative viability ([2]; first compound 0.253 µM): 0.496
- relative viability ([2]; first compound 0.8 µM): 0.462
- relative viability ([2]; first compound 2.53 µM): 0.451
- relative viability ([2]; first compound 8 µM): 0.436
- relative viability ([3]; first compound 0.5 µM): 0.885
- relative viability ([3]; first compound 1.581 µM): 0.929
- relative viability ([3]; first compound 5 µM): 0.947
- relative viability ([3]; first compound 15.81 µM): 0.798
- relative viability ([3]; first compound 50 µM): 0.891
- relative viability ([4]; first compound 0.5 µM): 1.18
- relative viability ([4]; first compound 1.581 µM): 1.21
- relative viability ([4]; first compound 5 µM): 1.18
- relative viability ([4]; first compound 15.81 µM): 0.991
- relative viability ([4]; first compound 50 µM): 1.09

Cell Line: NCI-H1734
- relative viability ([1]; first compound 0.5 µM): 1.02
- relative viability ([1]; first compound 1.581 µM): 0.803
- relative viability ([1]; first compound 5 µM): 0.971
- relative viability ([1]; first compound 15.81 µM): 0.827
- relative viability ([1]; first compound 50 µM): 0.472
- relative viability ([2]; first compound 0.08 µM): 0.252
- relative viability ([2]; first compound 0.253 µM): 0.248
- relative viability ([2]; first compound 0.8 µM): 0.291
- relative viability ([2]; first compound 2.53 µM): 0.257
- relative viability ([2]; first compound 8 µM): 0.237
- relative viability ([3]; first compound 0.5 µM): 0.948
- relative viability ([3]; first compound 1.581 µM): 0.866
- relative viability ([3]; first compound 5 µM): 0.991
- relative viability ([3]; first compound 15.81 µM): 1
- relative viability ([3]; first compound 50 µM): 0.529
- relative viability ([4]; first compound 0.5 µM): 0.948
- relative viability ([4]; first compound 1.581 µM): 0.773
- relative viability ([4]; first compound 5 µM): 0.922
- relative viability ([4]; first compound 15.81 µM): 0.712
- relative viability ([4]; first compound 50 µM): 0.292

Cell Line: HCC-15
- relative viability ([1]; first compound 0.5 µM): 1.07
- relative viability ([1]; first compound 5 µM): 1.11
- relative viability ([1]; first compound 15.81 µM): 0.94
- relative viability ([1]; first compound 50 µM): 0.481
- relative viability ([2]; first compound 0.08 µM): 0.394
- relative viability ([2]; first compound 0.253 µM): 0.294
- relative viability ([2]; first compound 0.8 µM): 0.398
- relative viability ([2]; first compound 2.53 µM): 0.167
- relative viability ([2]; first compound 8 µM): 0.143
- relative viability ([3]; first compound 0.5 µM): 0.884
- relative viability ([3]; first compound 1.581 µM): 0.836
- relative viability ([3]; first compound 5 µM): 0.865
- relative viability ([3]; first compound 15.81 µM): 0.728
- relative viability ([3]; first compound 50 µM): 0.432
- relative viability ([4]; first compound 0.5 µM): 1.09
- relative viability ([4]; first compound 1.581 µM): 1.12
- relative viability ([4]; first compound 5 µM): 1.06
- relative viability ([4]; first compound 15.81 µM): 0.951
- relative viability ([4]; first compound 50 µM): 0.801

Cell Line: NCI-H1651
- relative viability ([1]; first compound 0.5 µM): 0.893
- relative viability ([1]; first compound 1.581 µM): 0.608
- relative viability ([1]; first compound 5 µM): 0.818
- relative viability ([1]; first compound 15.81 µM): 0.729
- relative viability ([1]; first compound 50 µM): 0.784
- relative viability ([2]; first compound 0.08 µM): 0.717
- relative viability ([2]; first compound 0.253 µM): 0.818
- relative viability ([2]; first compound 0.8 µM): 0.68
- relative viability ([2]; first compound 2.53 µM): 0.436
- relative viability ([2]; first compound 8 µM): 0.307
- relative viability ([3]; first compound 0.5 µM): 1.2
- relative viability ([3]; first compound 1.581 µM): 0.805
- relative viability ([3]; first compound 5 µM): 0.982
- relative viability ([3]; first compound 15.81 µM): 0.808
- relative viability ([3]; first compound 50 µM): 0.249
- relative viability ([4]; first compound 0.5 µM): 0.951
- relative viability ([4]; first compound 1.581 µM): 0.837
- relative viability ([4]; first compound 5 µM): 0.934
- relative viability ([4]; first compound 15.81 µM): 0.896
- relative viability ([4]; first compound 50 µM): 0.772

Cell Line: LOU-NH91
- relative viability ([1]; first compound 0.5 µM): 0.944
- relative viability ([1]; first compound 5 µM): 0.995
- relative viability ([1]; first compound 15.81 µM): 0.545
- relative viability ([1]; first compound 50 µM): 0.906
- relative viability ([2]; first compound 0.08 µM): 0.644
- relative viability ([2]; first compound 0.253 µM): 0.631
- relative viability ([2]; first compound 0.8 µM): 0.636
- relative viability ([2]; first compound 2.53 µM): 0.669
- relative viability ([2]; first compound 8 µM): 0.419
- relative viability ([3]; first compound 0.5 µM): 1.11
- relative viability ([3]; first compound 5 µM): 0.97
- relative viability ([3]; first compound 15.81 µM): 0.543
- relative viability ([3]; first compound 50 µM): 0.665
- relative viability ([4]; first compound 0.5 µM): 0.501
- relative viability ([4]; first compound 5 µM): 0.531
- relative viability ([4]; first compound 15.81 µM): 0.384
- relative viability ([4]; first compound 50 µM): 0.426

Cell Line: NCI-H3122
- relative viability ([1]; first compound 0.5 µM): 0.897
- relative viability ([1]; first compound 1.581 µM): 0.897
- relative viability ([1]; first compound 5 µM): 0.927
- relative viability ([1]; first compound 15.81 µM): 0.986
- relative viability ([1]; first compound 50 µM): 0.684
- relative viability ([2]; first compound 0.08 µM): 0.427
- relative viability ([2]; first compound 0.253 µM): 0.453
- relative viability ([2]; first compound 0.8 µM): 0.373
- relative viability ([2]; first compound 2.53 µM): 0.237
- relative viability ([2]; first compound 8 µM): 0.177
- relative viability ([3]; first compound 0.5 µM): 1.04
- relative viability ([3]; first compound 1.581 µM): 0.956
- relative viability ([3]; first compound 5 µM): 0.943
- relative viability ([3]; first compound 15.81 µM): 1.01
- relative viability ([3]; first compound 50 µM): 0.567
- relative viability ([4]; first compound 0.5 µM): 1.07
- relative viability ([4]; first compound 1.581 µM): 0.975
- relative viability ([4]; first compound 5 µM): 0.918
- relative viability ([4]; first compound 15.81 µM): 1.06
- relative viability ([4]; first compound 50 µM): 0.352
